Experimental data as given in PubChem BioAssay AID248 (DTP/NCI, 2004).
Values joined by “and” are separate entries in the source; they are usually repeats but may differ in a detail not shown here. Identical values can stand only once. Toxic doses and inconclusive results are not listed. Cut-off read from the data, not from the text of the source: active = T/C of 150% or more; inactive = T/C below 125%.

Tested on: L1210 leukemia ip in BDF1 mice, survival T/C
Test: NCI In Vivo Anticancer Drug Screen. Data for tumor model L1210 Leukemia (intraperitoneal) in B6D2F1 (BDF1) mice
Settings: endpoint: mean survival time, higher = longer survival
Procedure, shortened: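 Mice bearing the transplanted tumor received compound or vehicle. Survival of the treated group was divided by that of the vehicle-treated control group to give the ratio.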

[1] = dose: 100.0 mg/kg/injection, schedule: Q04DX003 (ip), vehicle: Klucel (hydroxypropylcellulose) (HPC)
[2] = dose: 200.0 mg/kg/injection, schedule: Q04DX003 (ip), vehicle: Klucel (hydroxypropylcellulose) (HPC)
[3] = dose: 25.0 mg/kg/injection, schedule: Q04DX003 (ip), vehicle: Klucel (hydroxypropylcellulose) (HPC)
[4] = dose: 50.0 mg/kg/injection, schedule: Q04DX003 (ip), vehicle: Klucel (hydroxypropylcellulose) (HPC)
[5] = dose: 100.0 mg/kg/injection, schedule: Q01DX009 (ip), vehicle: saline
[6] = dose: 200.0 mg/kg/injection, schedule: Q01DX009 (ip), vehicle: saline
[7] = dose: 400.0 mg/kg/injection, schedule: Q01DX009 (ip), vehicle: saline
[8] = dose: 75.0 mg/kg/injection, schedule: Q04DX003 (ip), vehicle: Klucel (hydroxypropylcellulose) (HPC)
[9] = dose: 150.0 mg/kg/injection, schedule: Q04DX003 (ip), vehicle: Klucel (hydroxypropylcellulose) (HPC)
[10] = dose: 400.0 mg/kg/injection, schedule: Q04DX003 (ip), vehicle: Klucel (hydroxypropylcellulose) (HPC)
[11] = dose: 100.0 mg/kg/injection, schedule: Q01DX001 (ip), vehicle: saline
[12] = dose: 200.0 mg/kg/injection, schedule: Q01DX001 (ip), vehicle: saline
[13] = dose: 400.0 mg/kg/injection, schedule: Q01DX001 (ip), vehicle: saline
[14] = dose: 100.0 mg/kg/injection, schedule: Q04DX003 (ip), vehicle: saline
[15] = dose: 200.0 mg/kg/injection, schedule: Q04DX003 (ip), vehicle: saline
[16] = dose: 400.0 mg/kg/injection, schedule: Q04DX003 (ip), vehicle: saline

Measured: T/C

CC(NC(=O)NCCCl)c1ccco1 (centres undefined)
inactive: dose: 6.25 mg/kg/injection, schedule: Q01DX009 (ip), vehicle: Klucel (hydroxypropylcellulose) (HPC) 104 % of control | dose: 12.5 mg/kg/injection, schedule: Q01DX009 (ip), vehicle: Klucel (hydroxypropylcellulose) (HPC) 98 % of control | dose: 25.0 mg/kg/injection, schedule: Q01DX009 (ip), vehicle: Klucel (hydroxypropylcellulose) (HPC) 109 % of control | dose: 50.0 mg/kg/injection, schedule: Q01DX009 (ip), vehicle: Klucel (hydroxypropylcellulose) (HPC) 114 % of control | dose: 100.0 mg/kg/injection, schedule: Q01DX009 (ip), vehicle: Klucel (hydroxypropylcellulose) (HPC) 106 % of control | [1] 101 % of control | [2] 93 % of control

CN=C(N)c1ccc(N=C(N)c2ccc(C(N)=Nc3ccc(C(N)=NC)cc3)c(Cl)c2)cc1
inactive: dose: 7.5 mg/kg/injection, schedule: Q01DX Z (oral), vehicle: saline 101 % of control | dose: 15.0 mg/kg/injection, schedule: Q01DX Z (oral), vehicle: saline 98 % of control | dose: 30.0 mg/kg/injection, schedule: Q01DX Z (oral), vehicle: saline 101 % of control | dose: 60.0 mg/kg/injection, schedule: Q01DX Z (oral), vehicle: saline 101 % of control

CCOC(=O)Nc1cc2c(c(=O)[nH]1)N=C(CN(C)c1ccc(C(=O)OC)cc1)CN2
inactive: dose: 100.0 mg/kg/injection, schedule: Q01DX001 (ip), vehicle: alkali diluted with saline 104 % of control | dose: 200.0 mg/kg/injection, schedule: Q01DX001 (ip), vehicle: alkali diluted with saline 96 % of control | dose: 400.0 mg/kg/injection, schedule: Q01DX001 (ip), vehicle: alkali diluted with saline 102 % of control

O=[N+]([O-])c1cccc(OCCCOc2ccccc2)c1
inactive: dose: 100.0 mg/kg/injection, schedule: Q01DX009 (ip), vehicle: other 100 % of control | dose: 200.0 mg/kg/injection, schedule: Q01DX009 (ip), vehicle: other 92 % of control | dose: 400.0 mg/kg/injection, schedule: Q01DX009 (ip), vehicle: other 103 % of control

CCC1(O)CC(OC2CC(NC)C(OC3CC(O)C(OC4CC(O)C(O)C(C)O4)C(C)O3)C(C)O2)c2c(cc3c(c2O)C(=O)c2c(O)ccc(O)c2C3=O)C1C(=O)OC (centres undefined)
inactive: dose: 1.6 mg/kg/injection, schedule: Q01DX001 (ip), vehicle: saline 101 % of control | dose: 3.2 mg/kg/injection, schedule: Q01DX001 (ip), vehicle: saline 108 % of control | dose: 6.4 mg/kg/injection, schedule: Q01DX001 (ip), vehicle: saline 124 % of control | dose: 12.8 mg/kg/injection, schedule: Q01DX001 (ip), vehicle: saline 117 % of control | dose: 25.6 mg/kg/injection, schedule: Q01DX001 (ip), vehicle: saline 114 % of control

Cc1ccc(NC(N)=S)cc1
inactive: [3] 107 % of control | [4] 98 % of control | [1] 101 % of control

CCOP(=O)(OCC)C([O][Sb]([O]CC(C)Cl)[O]CC(C)Cl)c1ccc(OC)cc1 (centres undefined)
inactive: dose: 25.0 mg/kg/injection, schedule: Q04DX003 (ip), vehicle: alcohol 101 % of control | dose: 50.0 mg/kg/injection, schedule: Q04DX003 (ip), vehicle: alcohol 97 % of control | dose: 100.0 mg/kg/injection, schedule: Q04DX003 (ip), vehicle: alcohol 103 % of control and 113 % of control

O=C([O-])c1ccccc1[S+](c1ccccc1)c1ccccc1
inactive: dose: 18.0 mg/kg/injection, schedule: Q04DX002 (ip), vehicle: saline with Tween-80 104 % of control

C1CCC2C(C1)CCC1OC12 (centres undefined)
inactive: [5] 112 % of control | [6] 102 % of control | [7] 107 % of control

NC(N)=N/C(N)=N/NC(=O)c1ccncc1
inactive: dose: 66.0 mg/kg/injection, schedule: Q01DX Z (ip), vehicle: methylcellulose (MC) 100 % of control | dose: 93.0 mg/kg/injection, schedule: Q01DX Z (ip), vehicle: methylcellulose (MC) 89 % of control | dose: 140.0 mg/kg/injection, schedule: Q01DX Z (ip), vehicle: methylcellulose (MC) 91 % of control

O=CNc1ccc2ccccc2c1
inactive: dose: 37.5 mg/kg/injection, schedule: Q04DX003 (ip), vehicle: Klucel (hydroxypropylcellulose) (HPC) 92 % of control | [8] 97 % of control | [9] 103 % of control

Cc1ccc(C(C)C)c(OCC2C(=O)C3CCN2CC3)c1 (centres undefined)
inactive: dose: 12.5 mg/kg/injection, schedule: Q04DX003 (ip), vehicle: Klucel (hydroxypropylcellulose) (HPC) 101 % of control | [3] 101 % of control | [4] 95 % of control

NNC(=O)CNc1ccccc1Cl
inactive: dose: 100.0 mg/kg/injection, schedule: Q04DX002 (ip), vehicle: Klucel (hydroxypropylcellulose) (HPC) 112 % of control | dose: 200.0 mg/kg/injection, schedule: Q04DX002 (ip), vehicle: Klucel (hydroxypropylcellulose) (HPC) 108 % of control

NC(=O)NC(NC(=O)NC(NC(N)=O)c1ccco1)c1ccco1 (centres undefined)
inactive: [1] 102 % of control | [2] 96 % of control | [10] 88 % of control

Cc1ccc(S(=O)(=O)OCC2Oc3ccccc3O2)cc1
inactive: [8] 93 % of control | [9] 107 % of control | dose: 300.0 mg/kg/injection, schedule: Q04DX003 (ip), vehicle: Klucel (hydroxypropylcellulose) (HPC) 100 % of control

Cn1cc[n+](C)c1
inactive: [11] 102 % of control | [12] 97 % of control | [13] 100 % of control

CCCCCCN(CCCCCC)CCCCCC
inactive: dose: 8.0 mg/kg/injection, schedule: Q01DX015 (ip), vehicle: carboxymethylcellulose (CMC) 97 % of control | dose: 16.0 mg/kg/injection, schedule: Q01DX015 (ip), vehicle: carboxymethylcellulose (CMC) 100 % of control | dose: 32.0 mg/kg/injection, schedule: Q01DX015 (ip), vehicle: carboxymethylcellulose (CMC) 102 % of control | dose: 64.0 mg/kg/injection, schedule: Q01DX015 (ip), vehicle: carboxymethylcellulose (CMC) 96 % of control | [11] 97 % of control | dose: 128.0 mg/kg/injection, schedule: Q01DX015 (ip), vehicle: carboxymethylcellulose (CMC) 97 % of control | [12] 106 % of control | [13] 100 % of control

O=[N+]([O-])C(CO)(CO)CO
inactive: [14] 104 % of control | [15] 101 % of control | [16] 101 % of control

N#CC1=C(N)CCC(C#N)(c2ccccc2)C1 (centres undefined)
inactive: dose: 100.0 mg/kg/injection, schedule: Q01DX009 (ip), vehicle: saline with Tween-80 98 % of control | dose: 200.0 mg/kg/injection, schedule: Q01DX009 (ip), vehicle: saline with Tween-80 91 % of control

CCOC(=O)C1CCCN(S(=O)(=O)c2ccc(C)cc2)c2ccccc2C1=O (centres undefined)
inactive: [1] 93 % of control | [2] 102 % of control | [10] 94 % of control

CC1OCC2OC(C)OC(C(COC(c3ccccc3)(c3ccccc3)c3ccccc3)OS(C)(=O)=O)C2O1 (centres undefined)
inactive: [5] 101 % of control | [14] 102 % of control | [6] 106 % of control | [15] 98 % of control | [7] 88 % of control | [16] 93 % of control
